Experimental data reported in patent US8481725B2, “Cycloalkylcarbonylamino acid derivative and process for producing the same” (Seikagaku Corporation, priority 2006, dated 2013).
Starred links: 1 amine or outer side, 2 acyl side, 3 side chain; linkers in the order of their positions; H or OH if unused. Non-standard residues stand in square brackets, D forms with d. Residues, ends and D or L forms follow the SMILES beside them. *: point of attachment. Ac6c = NC1(C(=O)O)CCCCC1; Morpholide = C1CN(*)CCO1; Nle = CCCC[C@H](N)C(=O)O; Cbz = O=C(OCc1ccccc1)*; CO = O=C([*:1])[*:2]

Legend:
Type in all cases: biochemical
Human cathepsin L = target: T1, Human cathepsin L (Homo sapiens, UniProt P07711); experiment: Measurement of cathepsin L inhibitory activity (fluorescent substrate Z-Phe-Arg-MCA); settings: for IC50: pH 5.5, 30° C., 30 minutes; for L/K (ratio of IC50 cathepsin L to IC50 cathepsin K): selectivity ratio L/K
T1 construct: purchased Calbiochem Corp
Method: (§1) Human cathepsin L (Calbiochem Corp.) was used for measurement. Activity was measured based on decomposition of the fluorescent substrate Z-Phe-Arg-MCA (Peptide Institute, Inc.) in compliance with the method of Barrett, et al.^3). Namely, the decomposition of […] Z-Phe-Arg-MCA by cathepsin L was measured in 100 mM sodium acetate, 5 mM EDTA, 4 mM urea, 8 mM cysteine and 0.005% Brij35 at pH 5.5. The reaction was carried out for 30 minutes at 30° C., and stopped by the addition of 2×10^−5 M Calpeptin. After stopping the reaction, fluorescent intensity was measured at an excitation wavelength of 355 nm and measurement wavelength of 460 nm. Inhibition of cathepsin L by the compounds was examined using the reaction system described above.

Human cathepsin B = target: T2, Human cathepsin B (Homo sapiens, UniProt P07858); experiment: Measurement of cathepsin B inhibitory activity (fluorescent substrate Z-Arg-Arg-MCA); settings: for IC50: pH 6.0, 30° C., 30 minutes; for B/K (ratio of IC50 cathepsin B to IC50 cathepsin K): selectivity ratio B/K
T2 construct: purchased Calbiochem Corp
Method: as §1, with “B” for “L”, “Z-Arg-Arg-MCA” for “Z-Phe-Arg-MCA”, “sodium/potassium phosphate, 1” for “sodium acetate, 5”, “EDTA,” for “EDTA, 4 mM urea,”, “6.0.” for “5.5.”

Cathepsin K = target: T3, Cathepsin K (Oryctolagus cuniculus, UniProt P43236); experiment: Measurement of cathepsin K inhibitory activity (fluorescent substrate Z-Gly-Pro-Arg-MCA); settings: pH 6.0, 37° C., 30 minutes
T3 construct: Active enzyme was produced by expressing cathepsin K in the form of a proenzyme; made in house; host or cells: Sf21 insect cells (baculovirus expression system)
T3 sequence (P43236 115-329): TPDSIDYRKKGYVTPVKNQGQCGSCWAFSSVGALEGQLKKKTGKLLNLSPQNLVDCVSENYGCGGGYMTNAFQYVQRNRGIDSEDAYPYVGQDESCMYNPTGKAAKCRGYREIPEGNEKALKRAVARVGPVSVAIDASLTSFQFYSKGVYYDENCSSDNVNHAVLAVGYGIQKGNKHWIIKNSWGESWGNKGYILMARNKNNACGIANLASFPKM
Method: Active enzyme was produced by expressing cathepsin K in the form of a proenzyme in a cell culture from a baculovirus expression system using Sf21 insect cells, followed by incubating for 1 hour at 40° C.^1). Cathepsin K activity was measured based on decomposition of the fluorescent substrate Z-Gly-Pro-Arg-MCA (Peptide Institute, Inc.) in compliance with the method of Aibe, et al.^2). Namely, the decomposition of […] Z-Gly-Pro-Arg-MCA by cathepsin K was measured in 100 mM sodium/potassium phosphate, 1 mM EDTA and 8 mM cysteine at pH 6.0. The reaction was carried out for 30 minutes at 37° C., and stopped by the addition of 2×10^−5 M Calpeptin. After stopping the reaction, fluorescent intensity was measured at an excitation wavelength of 355 nm and measurement wavelength of 460 nm. Inhibition of cathepsin K by the compounds was examined using the reaction system described above.

T1 sequence (P07711 114-333): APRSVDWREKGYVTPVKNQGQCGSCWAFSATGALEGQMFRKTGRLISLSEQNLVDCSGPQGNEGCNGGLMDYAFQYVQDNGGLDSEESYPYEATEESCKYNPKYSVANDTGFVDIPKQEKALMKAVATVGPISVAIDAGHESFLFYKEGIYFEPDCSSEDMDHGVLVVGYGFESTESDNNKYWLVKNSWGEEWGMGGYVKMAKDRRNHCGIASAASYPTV

Row | SMILES | IC50 (Human cathepsin L) [nM] | L/K (ratio of IC50 cathepsin L to IC50 cathepsin K) (Human cathepsin L) | IC50 (Human cathepsin B) [nM] | B/K (ratio of IC50 cathepsin B to IC50 cathepsin K) (Human cathepsin B) | IC50 (Cathepsin K) [nM]
1 | CC(C)[C@@H](C=O)NC(=O)C1(NC(=O)OCc2ccccc2)CCCCC1 [Reference Example 189, N-[[1-[[(Phenylmethoxy)carbonyl]amino]cyclohexyl]carbonyl]-L-valinal] (Cbz-[Ac6c]-Val-aldehyde) | 680 | 400 | 390 | 230 | 1.7
2 | CCCC[C@@H](C=O)NC(=O)C1(NC(=O)OCc2ccccc2)CCCCC1 [Reference Example 190, N-[[1-[[(Phenylmethoxy)carbonyl]amino]cyclohexyl]carbonyl]-L-norleucinal] (Cbz-[Ac6c]-[Nle]-aldehyde) | 200 | 50 | 140 | 35 | 4
3 | CC(C)[C@@H](C=O)NC(=O)C1(NC(=O)c2ccco2)CCCCC1 [Reference Example 191, N-[[1-[(2-Furanylcarbonyl)amino]cyclohexyl]carbonyl]-L-valinal] | 200 | 370 | 47 | 87 | 0.54
4 | CCCC[C@@H](C=O)NC(=O)C1(NC(=O)N2CCOCC2)CCCCC1 [Reference Example 192, N-[[1-[(4-Morpholinylcarbonyl)amino]cyclohexyl]carbonyl]-L-norleucinal] ({Morpholide-CO}-[Ac6c]-[Nle]-aldehyde) | 470 | 21 | 260 | 12 | 22
5 | CC(C)C[C@H](NC(=O)OCc1ccccc1)C(=O)N[C@H](C=O)C(C)C [Reference Example 193, N—[N-[(Phenylmethoxy)carbonyl]-L-leucyl]-L-valinal] (Cbz-Leu-Val-aldehyde) | 140 | 74 | 110 | 58 | 1.9
6 | CCCC[C@@H](C=O)NC(=O)[C@H](CC(C)C)NC(=O)OCc1ccccc1 [Reference Example 194, N—[N-[(Phenylmethoxy)carbonyl]-L-leucyl]-L-norleucinal] | 53 | 15 | 40 | 11 | 3.5
7 | CCCC[C@@H](C=O)NC(=O)[C@H](CC(C)C)NC(=O)N1CCOCC1 [Reference Example 195, N—[N-(4-Morpholinylcarbonyl)-L-leucyl]-L-norleucinal] | 22 | 7.3 | 13 | 4.3 | 3
8 | CC(C)C[C@H](NC(=O)c1ccco1)C(=O)N[C@H](C=O)C(C)C [Reference Example 196, N—[N-(2-Furanylcarbonyl)-L-leucyl]-L-valinal] | 67 | 35 | 57 | 30 | 1.9
